Columns and labels:
dendritic cells (DCs) = assay: Calcein release from endosomal vesicles in dendritic cells; type: cell-based, mouse; details: 2 h at 37° C.
Method: DCs were isolated from mouse bone marrow tissues as previously described in Lewis et al. according to the guidelines set forth by the University of Florida Institutional Animal Care and Use Committee.
DCs were plated in 35 mm glass bottom culture dishes at a density of 5×10^4 cells in DC culture medium [DMEM:F12 1:1 (GE Healthcare Life Sciences), 10% fetal bovine serum, 1 mM sodium pyruvate, nonessential amino acids, penicillin-streptomycin, and 20 ng/mL GM-CSF (R&D systems)]. […] As a positive control, a portion of DCs were treated with the membrane permeable Acetoxymethyl ester of calcein (5 μM). Following treatment, cells were washed four times with phosphate buffered saline. New culture medium was added and the cells were imaged with a fluorescent microscope (Axiovert 200M microscope (Carl Zeiss, Oberkochen, Germany) using excitation/emission wavelengths of 495/515 nm at 200-fold magnification.
Images were analyzed by measuring the area of fluorescence per channel (green vs bright field). The values are reported as % relative fluorescence intensity per cell (RFI/cell).

[1] = system: Chinese hamster ovary (CHO-K1) cells; assay: CytoTox96 LDH cytotoxicity assay; type: cell-based; details: positive control for toxicity
Method: Chinese hamster ovary (CHO-K1) cells were grown in Ham's F12 medium (Mediatech) containing 10% fetal bovine serum (FBS, Hyclone), penicillin (100 units/mL), and streptomycin (100 μg/mL) at 37° C. in a humidified incubator with 5% CO2 [30]. Cell viability was determined via Trypan blue exclusion and was 97% with each passage.
Toxicity of MPs was determined employing CytoTox96 Non-radioactive Cytotoxity Assay (Promega). CHO cells were plated at a density of 10,000 cells per well in a 96 well tissue culture plate in 200 μL of cell culture medium. Cells were maintained at 37° C. in a humidified incubator in a 5% CO2 atmosphere. MPs were added at a ratio of 5, 10, 20, 30, 40, and 50 particles/cell and incubated at 37° C. for 24 h. The culture medium was transferred into wells of a clear bottom 96 well plate. Cells treated with 0.1% Triton X-100 were used as a positive control for 100% toxicity and cell culture medium alone was used for background subtraction for baseline lactate dehydrogenase (LDH) activity (background control). The cell supernatants were incubated with the developing reagents for 30 min per the manufacturer's instructions. The optical density of the developed color was determined by measuring absorbance at 490 nm. […]

Compound	cytosolic distribution of calcein (fluorescent area over cell area) (dendritic cells (DCs))	LDH release relative to basal background LDH activity in media without cells [1] [fold]
O=C(O)CN(CC(=O)O)Cc1cc2c(cc1O)Oc1cc(O)c(CN(CC(=O)O)CC(=O)O)cc1C21OC(=O)c2ccccc21 [calcein alone]	less than 10%	–
Acetoxymethyl ester of calcein [calcein AM]	~95%	–
Triton X-100	–	21
